Measured values reported in paper PMC11345766, “Computational Design of Pore-Forming Peptides with Potent Antimicrobial and Anticancer Activities” (Journal of Medicinal Chemistry, 2024).
Ends that are not written are not given here.

Key:
E. coli (TOP10) = experiment: Broth microdilution antimicrobial susceptibility assay; type: cell-based, Escherichia coli
Text: (§1) To test antimicrobial activity, all peptides were initially screened, in a broth microdilution assay, against Gram-negative Escherichia coli (TOP10) and Gram-positive Staphylococcus carnosus (CCM 4838T) Biosafety Level 1 (BSL-1) bacteria (Table 2). […] Four other mutants (LP3, LP26, LP36, and LP39) had higher activity than LP1 against E. coli, and two mutants (LP23 and LP32) had higher activity than LP1 against S. carnosus. Six mutants (LP29, LP30, LP31, LP33, LP40, and LP43) were not active against one or both bacteria, even at the highest concentration tested (50 μM).
(§2) Antimicrobial activity against E. coli TOP10 and S. carnosus CCM 4838T was tested using the broth microdilution assay. Bacteria were cultured in MHA Petri dish for 24 h, subcultured in an MHB test tube for 6 h at 37 °C, and diluted to 10^6 CFU/mL (OD600). […] Dilution series was prepared for concentrations 50 to 0.1 μM in a flat-bottom 96-well plate, inoculated with bacteria, and incubated for 24 h at 37 °C. Growth control wells were free from test compounds, and sterility control wells were free from bacteria. Bacterial MIC was determined as the lowest concentration of test compounds that inhibited visible growth of bacteria (i.e., no visible turbidity).

S. carnosus (CCM 4838T) = experiment: microbe, parasite or virus in culture; type: cell-based, Staphylococcus carnosus; conditions: CCM 4838, 24 h; read-out: Antimicrobial activity (MIC) S. carnosus (CCM 4838T)
Text: as §1, §2

[1] = Calcein dye leakage assay from LUVs; type: biochemical; conditions: for Calcein leakage (%) from LUVs at P:L 1:100 (mol/mol): pH 7.4
Text: To verify the pore-forming mechanism of action of the designed AMPs, we performed a calcein leakage assay. […] These lipid vesicles were used as simple mimics of bacterial membranes.[58] At the lowest tested peptide-to-lipid (P:L) ratio of 1:100 (mol/mol), three mutants (LP18, LP26, and LP40) caused >90% leakage, which was higher than the leakage caused by LP1 (87%). […] At the same concentration, LP23 caused leakage equivalent to that caused by LP1. Other mutants had lower leakage activity. At a higher P:L ratio of 1:50, all the abovementioned mutants caused 100% leakage, equivalent to that caused by LP1.
Pore-forming activity was tested using a dye leakage assay measuring the leakage of self-quenching fluorescent dye calcein from POPC:POPG (1:1 mol/mol) LUVs. DiD was mixed with lipids (1:500 mol/mol), and lipid film was created by evaporating chloroform, followed by 4 h of desiccation. Dried lipid film was dissolved in calcein buffer (35 mM calcein, 25 mM NaH2PO4·H2O and Na2HPO4·7H2O (3:7 mol/mol), 20 mM NaCl, and 1 mM EDTA). After 10 freeze–thaw cycles, the sample was extruded 50 times through a 100 nm pore size polycarbonate membrane filter. Free calcein in solution was removed using a HiTrap Desalting column. The concentrations of LUVs and peptides were adjusted to 0.02 and 0.1 mM, respectively, in PBS (25 mM NaH2PO4·H2O and Na2HPO4·7H2O (3:7 mol/mol), 100 mM NaCl, and 1 mM EDTA). The investigated P/L ratio was from 1:100 to 1:10 (mol/mol). Fluorescence intensity was measured using a HORIBA Scientific Jobin Yvon FluoroLog-3 Modular Spectrofluorometer (USA). Excitation and emission wavelengths were set to 495 and 520 nm, respectively. Triton X-100 10% caused 100% leakage used for normalization.

[2] = test system: human red blood cells (HRBCs); conditions: read-out: Hemolysis toxicity (IC50); 1 h incubation
Experimental: To investigate the toxicity for normal human cells, all peptides were first screened against human red blood cells (HRBCs) using a hemolysis assay (Table 2 and Figure S4).
Hemolysis toxicity was tested against HRBCs. Blood samples, collected from the university hospital, were centrifuged twice at 700 × g and once at 1000 × g for 8 min at 4 °C to obtain erythrocyte pellets. Supernatants were always discarded, and pellets were resuspended in PBS (the same as the antimicrobial susceptibility assay). The final RBC suspension was 0.5% (v/v). Dilution series was prepared for concentrations 50 to 0.1 μM in a V-bottom 96-well plate, followed by the addition of RBC suspension. […] After 1 h of incubation at 37 °C, the well plate was centrifuged at 1000 × g for 10 min at 4 °C. The supernatant, collected in a flat-bottom well plate, was measured for OD415 using Tecan Microplate Reader Infinite F500.

| MIC (E. coli (TOP10); 24 h, MHB) | Substance | MIC (S. carnosus (CCM 4838T)) | Calcein leakage (%) from LUVs at P:L 1:100 (mol/mol) [1] | MIC (E. coli (TOP10); TOP10, 24 h) | IC50 [2] | Calcein leakage ([1]; even at a higher P:L ratio of 1:10) |
| --- | --- | --- | --- | --- | --- | --- |
| 0.2 µM | H-KKKKLKKILKKLFQFINQLDNQLQDIKQNK-OH [LP22] | 0.4 µM | 68.0 ± 1.7% |  |  |  |
| 0.4 µM | H-KKKKLKKILKKLFQFINQLDNQLQDFKQNK-OH [LP26] | 0.8 µM | 91.6 ± 2.8% |  |  |  |
| 0.8 µM | KKKKLKKILKKLFQFINQLENQLQEIKQNK-NH2 [LP8] | 0.8 µM | 29.2 ± 4.9% |  |  |  |
|  | KKKKAKKAAKKAFQFANQADNQAQDAKQNK-NH2 [LP29] | > 50 µM | 0% | > 50 µM | > 50 µM | did not cause any leakage |
|  | KKKKLKKILKKLFSFISSLDSSLSDIKSSK-NH2 [LP36] | 0.8 µM | 71.5 ± 7.4% | 0.4 µM | > 50 µM |  |
|  | KNQNLDDILNQLFQFINQLKNQLQKIKKKK-NH2 [LP43] | 0.8 µM | 64.2 ± 4.6% | > 50 µM | > 50 µM |  |
| 0.2 µM | KKKKLRRILRRLFQFINQLDNQLQDIKQNK-NH2 [LP38] | 0.4 µM | 76.0 ± 3.3% |  |  |  |
| 0.4 µM | KKKKLKKILKKLWQWINQLDNQLQDIKQNK-NH2 [LP3] | 0.8 µM | 29.6 ± 1.2% |  |  |  |
| 1.6 µM | KKKKLKKILKKLFQFIDQLINDLQNIKKKK-NH2 [LP20] | 1.6 µM | 38.6 ± 3.5% |  |  |  |
|  | KKKKMKKMMKKMFQFMNQMDNQMQDMKQNK-NH2 [LP30] | 12.5 µM | 21.9 ± 2.5% | > 50 µM | > 50 µM |  |
|  | KKKKLKKILKKLIQLINQLDNQLQDIKQNK-NH2 [LP2] | 1.6 µM | 24.2 ± 2.6% | 6.3 µM | > 50 µM |  |
| 0.4 µM | RRRRLKKILKKLFQFINQLDNQLQDIRQNR-NH2 [LP39] | 0.8 µM | 65.5 ± 4.2% |  |  |  |
|  | KKKKLKKILKKLFTFITTLDTTLTDIKTTK-NH2 [LP34] | 0.8 µM | 79.3 ± 2.4% | 0.8 µM | > 50 µM |  |
|  | Ac-KKKKLKKILKKLFQFINQLDNQLQDIKQNK-NH2 [LP23] | 0.4 µM | 83.3 ± 5.4% | 6.3 µM | > 50 µM |  |
|  | KKKKLKKILKKLFNFINNLDNNLNDIKNNK-NH2 [LP37] | 0.4 µM | 70.3 ± 1.7% | 0.2 µM | > 50 µM |  |
